Measurements as given in US12559502B2, “Thieno pyrimidines as ferroportin inhibitors” (Global Blood Therapeutics, Inc., priority 2020, dated 2026).

Target: T1, human ferroportin (Homo sapiens, UniProt Q9NP59)
T1 construct: expressed in transfected cells; host or cells: CHO cells, stably transfected, doxycycline-inducible
T1 sequence (Q9NP59 1-571): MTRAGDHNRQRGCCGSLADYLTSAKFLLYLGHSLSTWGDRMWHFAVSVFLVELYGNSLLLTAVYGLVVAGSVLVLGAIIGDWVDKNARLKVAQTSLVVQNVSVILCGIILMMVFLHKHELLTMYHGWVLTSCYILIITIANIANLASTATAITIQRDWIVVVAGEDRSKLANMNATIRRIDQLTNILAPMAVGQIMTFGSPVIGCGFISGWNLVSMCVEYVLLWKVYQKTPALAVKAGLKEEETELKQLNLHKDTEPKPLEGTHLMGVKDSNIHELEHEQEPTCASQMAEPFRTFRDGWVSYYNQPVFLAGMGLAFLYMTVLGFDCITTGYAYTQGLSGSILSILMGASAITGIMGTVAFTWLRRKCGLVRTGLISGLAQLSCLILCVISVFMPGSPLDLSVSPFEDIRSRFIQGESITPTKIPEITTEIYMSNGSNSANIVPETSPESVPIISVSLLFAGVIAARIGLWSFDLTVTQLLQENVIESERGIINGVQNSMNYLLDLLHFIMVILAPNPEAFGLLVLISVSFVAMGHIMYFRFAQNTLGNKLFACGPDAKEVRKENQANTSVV
Test: In-vitro ferroportin internalization assay (luciferase reporter)
Format: cell-based
Settings: average pEC50; stably-transfected CHO cell line expressing human ferroportin tagged to a luciferase reporter; 6 h incubation with test compound; luciferase activity (Nano-Glo)
Procedure: The protocol for this assay is generally as described in WO2018/128828, incorporated herein by reference in its entirety. Functional internalization of ferroportin protein was measured using a stably-transfected CHO cell line expressing the human ferroportin tagged to a luciferase reporter. Cells were plated for 24 h in the presence of ferric ammonium citrate (FAC). Ferroportin protein expression was induced with doxycycline for 24 h. The next day, the compounds were added. Test compounds were dissolved in DMSO. Cells were incubated with the test compounds for 6 h, and subsequently luciferase activity was measured using the Nano-Glo Luciferase Assay System and Glomax (Promega, Madison, WI).
The average pEC50 was determined for the test compounds.

`COc1ccc(NC(=O)CN(C)c2nc(-c3cn(C)cn3)nc3sc(C)c(C)c23)cn1` [Compound 13, 2-{[5,6-dimethyl-2-(1-methyl-1H-imidazol-4-yl)thieno[2,3-d]pyrimidin-4-yl](methyl)amino}-N-(6-methoxypyridin-3-yl)acetamide] and `Cc1ccc(NC(=O)CN(C)c2nc(-c3cn(C)cn3)nc3sc(C)c(C)c23)cn1` [Compound 12, 2-{[5,6-dimethyl-2-(1-methyl-1H-imidazol-4-yl)thieno[2,3-d]pyrimidin-4-yl](methyl)amino}-N-(6-methylpyridin-3-yl)acetamide] are the same in pEC50: 7.1 for the first, 7.1 for the second.

Going from `Cc1sc2nc(-c3cn(C)cn3)nc(N(C)CC(=O)NC(C)(C)C)c2c1C` [Compound 14, N-tert-butyl-2-{[5,6-dimethyl-2-(1-methyl-1H-imidazol-4-yl)thieno[2,3-d]pyrimidin-4-yl](methyl)amino}acetamide] to `Cc1sc2nc(-c3cc(OCCO)ccn3)nc(N(C)CC(=O)NC(C)(C)C)c2c1C` [Compound 15, N-tert-butyl-2-({2-[4-(2-hydroxyethoxy)pyridin-2-yl]-5,6-dimethylthieno[2,3-d]pyrimidin-4-yl}(methyl)amino)acetamide], the pEC50 rises from 7 to 7.8.

First: Cc1sc2nc(-c3cc(OCCn4ccnc4)ccn3)nc(N(C)CC(=O)NC(C)(C)C)c2c1C [Compound 24, N-tert-butyl-2-[(2-{4-[2-(1H-imidazol-1-yl)ethoxy]pyridin-2-yl}-5,6-dimethylthieno[2,3-d]pyrimidin-4-yl)(methyl)amino]acetamide]
Second: Cc1sc2nc(-c3cc(OCCN(C)C)ccn3)nc(N(C)CC(=O)NC(C)(C)C)c2c1C [Compound 18, N-tert-butyl-2-[(2-{4-[2-(dimethylamino)ethoxy]pyridin-2-yl}-5,6-dimethylthieno[2,3-d]pyrimidin-4-yl)(methyl)amino]acetamide]
The pEC50 of the first is higher: 8 for the first, 7.8 for the second.

Compared with `Cc1sc2nc(-c3cc(OCCN4C[C@@H]5C[C@H]4CO5)ccn3)nc(N(C)CC(=O)NC(C)(C)C)c2c1C` [Compound 23, N-tert-butyl-2-{[5,6-dimethyl-2-(4-{2-[(1S,4S)-2-oxa-5-azabicyclo[2.2.1]heptan-5-yl]ethoxy}pyridin-2-yl)thieno[2,3-d]pyrimidin-4-yl](methyl)amino}acetamide], `Cc1sc2nc(-c3cc(OCCN4CCOCC4)ccn3)nc(N(C)CC(=O)NC(C)(C)C)c2c1C` [Compound 20, N-tert-butyl-2-[(5,6-dimethyl-2-{4-[2-(morpholin-4-yl)ethoxy]pyridin-2-yl}thieno[2,3-d]pyrimidin-4-yl)(methyl)amino]acetamide] is lower in pEC50: 8.2 for the first, 8 for the second.

Going from `Cc1sc2nc(-c3cc(OCCN4CCN(C)CC4)ccn3)nc(N(C)CC(=O)NC(C)(C)C)c2c1C` [Compound 21, N-tert-butyl-2-[(5,6-dimethyl-2-{4-[2-(4-methylpiperazin-1-yl)ethoxy]pyridin-2-yl}thieno[2,3-d]pyrimidin-4-yl)(methyl)amino]acetamide] to `Cc1sc2nc(-c3cc(O[C@@H]4CCN(C)C4)ccn3)nc(N(C)CC(=O)NC(C)(C)C)c2c1C` [Compound 19, N-tert-butyl-2-{[5,6-dimethyl-2-(4-{[(3R)-1-methylpyrrolidin-3-yl]oxy}pyridin-2-yl)thieno[2,3-d]pyrimidin-4-yl](methyl)amino}acetamide], the pEC50 falls from 7.8 to 7.6.

`Cc1ccc(NC(=O)CN(C)c2nc(-c3cc(OCCO)ccn3)nc3sc(C)c(C)c23)cn1` [Compound 10, 2-({2-[4-(2-hydroxyethoxy)pyridin-2-yl]-5,6-dimethylthieno[2,3-d]pyrimidin-4-yl}(methyl)amino)-N-(6-methylpyridin-3-yl)acetamide] and `COc1ccc(NC(=O)CN(C)c2nc(-c3cc(OCCO)ccn3)nc3sc(C)c(C)c23)cn1` [Compound 11, 2-([2-[4-(2-hydroxyethoxy)pyridin-2-yl]-5,6-dimethylthieno[2,3-d]pyrimidin-4-yl](methyl)amino)-N-(6-methoxypyridin-3-yl)acetamide] are within 0.2 log units of each other in pEC50: 7.6 for the first, 7.5 for the second.

`Cc1sc2nc(-c3cc(OCCO)ccn3)nc(N(C)CC(=O)Nc3cccc(F)c3)c2c1C` [Compound 9, N-(3-fluorophenyl)-2-({2-[4-(2-hydroxyethoxy)pyridin-2-yl]-5,6-dimethylthieno[2,3-d]pyrimidin-4-yl}(methyl)amino)acetamide] and `COc1cccc(NC(=O)CN(C)c2nc(-c3cc(OCCO)ccn3)nc3sc(C)c(C)c23)c1` [Compound 8, 2-({2-[4-(2-hydroxyethoxy)pyridin-2-yl]-5,6-dimethylthieno[2,3-d]pyrimidin-4-yl}(methyl)amino)-N-(3-methoxyphenyl)acetamide] are within 0.2 log units of each other in pEC50: 7.7 for the first, 7.8 for the second.

First: Cc1sc2nc(-c3cc(OCCN(C)C)ccn3)nc(N(C)CC(=O)NC3(C(F)(F)F)CC3)c2c1C [Compound 22, 2-[(2-{4-[2-(dimethylamino)ethoxy]pyridin-2-yl}-5,6-dimethylthieno[2,3-d]pyrimidin-4-yl)(methyl)amino]-N-[1-(trifluoromethyl)cyclopropyl]acetamide]
Second: COc1ccc(NC(=O)CN(C)c2nc(-c3cc(OCCO)ccn3)nc3scc(C)c23)cn1 [Compound 17, 2-({2-[4-(2-hydroxyethoxy)pyridin-2-yl]-5-methylthieno[2,3-d]pyrimidin-4-yl}(methyl)amino)-N-(6-methoxypyridin-3-yl)acetamide]
The pEC50 of the first is lower: 7.5 for the first, 7.7 for the second.

Going from `COc1ccc(NC(=O)CN(C)c2nc(-c3cc(OCCO)ccn3)nc3sc(C)cc23)cn1` [Compound 16, 2-({2-[4-(2-hydroxyethoxy)pyridin-2-yl]-6-methylthieno[2,3-d]pyrimidin-4-yl}(methyl)amino)-N-(6-methoxypyridin-3-yl)acetamide] to `COc1ccnc(-c2nc(N(C)CC(=O)Nc3ccc(OC)nc3)c3ccsc3n2)c1` [Compound 7, 2-{[2-(4-methoxypyridin-2-yl)thieno[2,3-d]pyrimidin-4-yl](methyl)amino}-N-(6-methoxypyridin-3-yl)acetamide], the pEC50 falls from 7.6 to 6.6.
